Tests used:
[1] = background statement; cited from earlier work
[2] = pH in water solution; format: physicochemical; conditions: 10% aqueous solution
[3] = tested on: urinary Trp metabolites; experiment: in vivo trial: urinary tryptophan and metabolites in bladder cancer patients (HPLC in reverse phase)
Procedure: 24 bladder cancer patients were randomized into two groups to receive MESNA-Arginine (per os, 800 mg/daily) or placebo. In both groups 24 hours before and after administration of the drug (MESNA-Arginine, or Placebo), urinary Kynurenine (Ky), Xanthurenic acid (XA), 5-hydroxy-indoleacetic acid (5-HIAA), AA, Trp and 3-OH-AA were determined by HPLC in reverse phase (Rocchini P., Bizzari M., Pompei M; Ciani D., Panicucci M. and Gallo S. Urinary determination of Tryptophan and related metabolites through HPLC in reverse-phase. Rass. Chimi. 1:15-18, 1984.)

[4] = solubility in water; format: physicochemical
[5] = per os, 800 mg/daily, after 24 hours, P-0.001
[6] = per os, 800 mg/daily, after 24 hours, listed as MESNA-Arginine
[7] = per os, 800 mg/daily, after 24 hours, listed as MESNA-arginine

Row | Structure (SMILES) | instability of the compound in the free state [1] | pH in 10% water solution [2] | cerebral uptake of Trp ([3]; inferred from rate excretion of 5-HIAA) | urinary tryptophan levels ([3]; per os, 800 mg/daily, after 24 hours) | reduction of urinary 3-OH-anthranilic acid [3, 5] | reduction of urinary anthranilic acid [3, 5] | urinary 5-HIAA [3, 6] | urinary kynurenine (Ky) [3, 6] | urinary xanthurenic acid (XA) [3, 6] | urinary 5-HIAA [3, 7] | urinary kynurenine (Ky) [3, 7] | urinary xanthurenic acid (XA) [3, 7] | solubility in water [4]
1 | O=S(=O)(O)CCS [MESNA, mercaptoethansulphonic acid] | high instability |  |  |  |  |  |  |  |  |  |  |  | 
2 | O=S(=O)(O)CCS [Example 2, arginine mercaptoethansulphonate] |  | 6.7 | no variations | slight reduction | -71% | -61% | no variation | no variation | no variation | substantial invariance | unchanged | unchanged | perfect

— US5244920A, “Pharmaceutical compositions having therapeutical activity based on mercaptoethansulphonic arginine salt” (Schering Spa, priority 1985, dated 1993)
